“And” between values parts separate entries of the source, which are not always exact repeats. Equal values may be shown once.
Columns and labels:
[1] = cited from earlier work; for Approximate Equivalent Dose: equivalent to 0.75 mg dexamethasone
[2] = tested on: LPS-GalN induced liver injury; test: LPS-GalN model, treatment 2 h post LPS-GalN: liver histopathological score
[3] = tested on: LPS-GalN induced acute lung injury; test: LPS-GalN model, treatment 2 h post LPS-GalN: lung histopathological (ALI) score; details: for Mean±SE ALI score: scale 0 to 4
LPS-GalN challenged mice = test: LPS-GalN model of fatal cytokine storm and sepsis, treatment 2 h post LPS-GalN: 24 h survival
[4] = low dose RJX, standard dose DEX, alone or combined, 2 h post LPS-GalN
[5] = DEX 0.1 mg/kg i.p. 2 h post LPS-GalN, n=6
[6] = DEX 0.6 mg/kg i.p. 2 h post LPS-GalN, n=6
[7] = DEX 6.0 mg/kg i.p. 2 h post LPS-GalN, n=6
[8] = RJX 0.7 ml/kg, DEX 0.6 mg/kg, alone or combined, 2 h post LPS-GalN

Q: For `C[C@]12CCC(=O)C=C1CC[C@@H]1[C@@H]2C(=O)C[C@@]2(C)[C@H]1CC[C@]2(O)C(=O)CO` [Cortisone], which “Approximate Equivalent Dose” value [1] is on record?
A: 25 mg

Q: For `C[C@]12CCC(=O)C=C1CC[C@H]1[C@@H]3CC[C@](O)(C(=O)CO)[C@@]3(C)C[C@H](O)[C@@]12F` [Fludrocortisone], which “Anticipated Half-life” value [1] is on record?
A: 12 to 26 h and 12 to 36 h

Q: For `C[C@@H]1C[C@H]2[C@@H]3CCC4=CC(=O)C=C[C@]4(C)[C@@]3(F)[C@@H](O)C[C@]2(C)[C@@]1(O)C(=O)CO` [DEX, dexamethasone], which “histopathological liver damage score (Mean±SE)” value ([2]; DEX 0.1 mg/kg) is on record?
A: 3.3±0.2

Q: And the “histopathological liver damage score (Mean±SE)” value ([2]; DEX 0.6 mg/kg)?
A: 2.7±0.2

Q: What about the liver score median ([2]; DEX 0.6 mg/kg) of the same compound?
A: 3

Q: What about the “histopathological liver damage score (Mean±SE)” value ([2]; DEX 6.0 mg/kg) of the same compound?
A: 2.3±0.2

Q: And the liver score median ([2]; DEX 6.0 mg/kg)?
A: 3

Q: And the “liver histopathological scores, range” value ([2]; DEX (0.1))?
A: 3-4

Q: What about the “Liver Histopathological Score: ≥3 (severe damage or more), percent of mice” value [2, 4] of the same compound?
A: 50%

Q: And the “lung histopathological ALI score, Median” value ([3]; DEX 0.1 mg/kg)?
A: 3.5

Q: And the “lung histopathological ALI scores, range” value ([3]; DEX 0.1 mg/kg)?
A: 3-4

Q: And the “Mean±SE ALI score” value ([3]; DEX 0.1 mg/kg)?
A: 3.5±0.2

Q: And the “lung histopathological ALI score, Median” value ([3]; DEX 0.6 mg/kg)?
A: 3

Q: What about the “lung histopathological ALI scores, range” value ([3]; DEX 0.6 mg/kg) of the same compound?
A: 2-4

Q: What about the “Mean±SE ALI score” value ([3]; DEX 0.6 mg/kg) of the same compound?
A: 2.8±0.3

Q: And the “lung histopathological ALI score, Median” value ([3]; DEX 6.0 mg/kg)?
A: 2

Q: What about the “lung histopathological ALI scores, range” value ([3]; DEX 6.0 mg/kg) of the same compound?
A: 1-3

Q: What about the “Mean±SE ALI score” value ([3]; DEX 6.0 mg/kg) of the same compound?
A: 1.8±0.3

Q: And the “Lung Histopathological Score: ≥3 (severe damage or more), percent of mice” value [3, 4]?
A: 50%

Q: What about the “ALI score of a representative mouse” value ([3]; single dose at 2 hours post-LPS-GalN, sacrificed at 24 hours, low dose RJX, high dose DEX or both) of the same compound?
A: 2

Q: And the Censored (LPS-GalN challenged mice; [5])?
A: 1

Q: And the Events (LPS-GalN challenged mice; [5])?
A: 5

Q: And the “Median (survival)” value (LPS-GalN challenged mice; [5])?
A: 5.1 h

Q: And the “Proportion (events; 24-h mortality)” value (LPS-GalN challenged mice; [5])?
A: 83.3%

Q: What about the Censored (LPS-GalN challenged mice; [6]) of the same compound?
A: 3

Q: And the Events (LPS-GalN challenged mice; [6])?
A: 3

Q: What about the “Median (survival)” value (LPS-GalN challenged mice; [6]) of the same compound?
A: 15.0 h

Q: What about the “Proportion (events; mortality)” value (LPS-GalN challenged mice; [6]) of the same compound?
A: 50.0%

Q: And the Censored (LPS-GalN challenged mice; [7])?
A: 4

Q: And the Events (LPS-GalN challenged mice; [7])?
A: 2

Q: What about the “Proportion (events; mortality)” value (LPS-GalN challenged mice; [7]) of the same compound?
A: 33.3%

Q: And the Censored (LPS-GalN challenged mice; RJX 0.7 ml/kg (6-fold diluted 4.2 mL/kg), DEX 0.6 mg/kg, alone or combined, 2 h post LPS-GalN)?
A: 5

Q: And the Events (LPS-GalN challenged mice; [8])?
A: 5

Q: And the “Median (survival)” value (LPS-GalN challenged mice; [8])?
A: 17.6 h

Q: What about the “Proportion (events)” value (LPS-GalN challenged mice; [8]) of the same compound?
A: 50.0%

Q: For `C[C@]12CCC(=O)C=C1CC[C@@H]1[C@@H]2[C@@H](O)C[C@@]2(C)[C@H]1CC[C@]2(O)C(=O)CO` [Hydrocortisone], which “Approximate Equivalent Dose” value [1] is on record?
A: 20 mg

Q: For `C[C@]12C=CC(=O)C=C1CC[C@H]1[C@@H]3C[C@@H](O)[C@](O)(C(=O)CO)[C@@]3(C)C[C@H](O)[C@@]12F` [Triamcinolone], which “Approximate Equivalent Dose” value [1] is on record?
A: 4 mg

Q: Which “Approximate Equivalent Dose” value [1] does the source give for `C[C@]12C=CC(=O)C=C1CC[C@@H]1[C@@H]2[C@@H](O)C[C@@]2(C)[C@H]1CC[C@]2(O)C(=O)CO` [Prednisolone] here?
A: 5 mg

— patent US20220096538A1, “PHARMACEUTICAL COMPOSITIONS AND METHODS FOR PREVENTION AND/OR TREATMENT OF INFLAMMATION” (priority 2020, published 2022)
